Results taken from patent US11304417B2, “Method of protecting determinate soybean from damage by a plant pathogen” (SUMITOMO CHEMICAL COMPANY, LIMITED, priority 2019, dated 2022).

What was measured:
Type in all cases: in vivo
[1] = test system: Asian soybean rust (Phakopsora pachyrhizi); test: Foliar spray of mefentrifluconazole, Asian soybean rust inoculation, fresh weight of aerial part (Example 1 / Comparative Example 1); settings: foliar spray 500 g per hectare, 14 days from inoculation
Procedure: Determinate soybean is sown to a pot filled with a soil. It is incubated for 7 days in a greenhouse. Mefentrifluconazole spray liquid (prepared by diluting an aqueous suspension concentrate of mefentrifluconazole with water) is uniformly sprayed onto the foliage of determinate soybean at the amount of 200 L per hectare so that the application rate of mefentrifluconazole may be 500 g per hectare. On the next day of the spraying, a pathogen of Asian soybean rust (Phakopsora pachyrhizi) is inoculated to the foliage of determinate soybean. The determinate soybean is incubated in a greenhouse for 14 days from the inoculation, and then fresh weight of the aerial part of the determinate soybean is measured. It is confirmed that the fresh weight is equivalent to that of the control where determinate soybean is not treated with mefentrifluconazole and the pathogen is not inoculated (no-treatment-no-inoculation control) and is bigger than that of the control where determinate soybean is not treated with mefentrifluconazole and the pathogen is inoculated (no-treatment-inoculation control). The same procedure of the example 1 is repeated except for replacing determinate soybean with indeterminate soybean or semi-determinate soybean. It is confirmed that the fresh weight of indeterminate soybean or semi-determinate soybean is smaller than that of the corresponding no-treatment-no-inoculation control and is equivalent to that of the corresponding no-treatment-inoculation control.

[2] = test system: Asian soybean rust (Phakopsora pachyrhizi); test: Dripping mefentrifluconazole onto apical bud, Asian soybean rust inoculation, fresh weight of aerial part (Example 5 / Comparative Example 5); settings: 500 g per hectare; for Treatment/control ratio (100 × A/B): dripped onto apical bud 0.5 mg per plant, 7 days from inoculation
Procedure: Two varieties of determinate soybean were sown to a pot filled with a soil at a sowing rate of 1,000,000 seeds per hectare. Then each determinate soybean was incubated for […] in a greenhouse. A mefentrifluconazole dilution liquid (prepared by diluting an aqueous suspension concentrate of mefentrifluconazole with water) is dripped onto the apical bud of determinate soybean plants so that the amount of mefentrifluconazole to be applied to each plant might be 0.5 mg. That is, the application rate of mefentrifluconazole was 500 g per hectare. Three days after the application, a pathogen of Asian soybean rust (Phakopsora pachyrhizi) was inoculated to the foliage of each determinate soybean. Each determinate soybean was incubated in a greenhouse for 7 days from the inoculation, and then fresh weight of the aerial part of each determinate soybean was measured. The fresh weight is referred to as ‘the fresh weight in treatment plot’.
As a control experiment, the same procedure was repeated except that dripping treatment with mefentrifluconazole dilution liquid and the inoculation of the pathogen were not conducted. The fresh weight obtained in the control experiment is referred to as ‘the fresh weight in control plot’.
The same procedure of the example 5 was repeated except for replacing two varieties of determinate soybean with two varieties of indeterminate soybean.

[3] = test system: Asian soybean rust (Phakopsora pachyrhizi); test: Seed dipping with mefentrifluconazole, Asian soybean rust inoculation, fresh weight of aerial part (Example 4 / Comparative Example 4); settings: 200 g per hectare; for Treatment/control ratio (100 × A/B): seed dipping 0.2 mg per seed, 7 days from inoculation; for Protection from the damage by the pathogen: seed dipping
Procedure: Seeds of two varieties of determinate soybean were separately dipped in a mefentrifluconazole dilution liquid (prepared by diluting an aqueous suspension concentrate of mefentrifluconazole with water) so that the amount of mefentrifluconazole to be applied to each seed might be 0.2 mg. Then, the determinate soybean seeds were sown to a pot filled with a soil at a sowing rate of 1,000,000 seeds per hectare. That is, the application rate of mefentrifluconazole was 200 g per hectare. Each determinate soybean was incubated in a greenhouse for 11 days from the sowing, and then a pathogen of Asian soybean rust (Phakopsora pachyrhizi) was inoculated to the foliage of each determinate soybean. Each determinate soybean was incubated in a greenhouse for 7 days from the inoculation, and then fresh weight of the aerial part of each determinate soybean was measured. The fresh weight is referred to as ‘the fresh weight in treatment plot’. As a control experiment, the same procedure was repeated except that dipping treatment with mefentrifluconazole dilution liquid and the inoculation of the pathogen were not conducted. The fresh weight obtained in the control experiment is referred to as ‘the fresh weight in control plot’. The same procedure of the example 4 was repeated except for replacing two varieties of determinate soybean with two varieties of indeterminate soybean.

[4] = test system: Asian soybean rust (Phakopsora pachyrhizi); test: Seed coating with mefentrifluconazole, Asian soybean rust inoculation, fresh weight of aerial part (Example 2 / Comparative Example 2); settings: seed coating 0.2 mg per seed, 20 g per hectare, 14 days from inoculation
Procedure: Seeds of determinate soybean are coated with a mefentrifluconazole aqueous suspension concentrate so that the amount of mefentrifluconazole to be applied to each seed may be 0.2 mg. Then, the determinate soybean seeds are sown to a pot filled with a soil at a sowing rate of 100,000 seeds per hectare. That is, the application rate of mefentrifluconazole is 20 g per hectare. Then, the determinate soybean is incubated in a greenhouse for 10 days, followed by inoculating a pathogen of Asian soybean rust (Phakopsora pachyrhizi) to the foliage of determinate soybean. The determinate soybean is incubated in a greenhouse for 14 days from the inoculation, and then the fresh weight of the aerial part of the determinate soybean is measured. It is confirmed that the fresh weight is equivalent to that of the control where determinate soybean is not treated with mefentrifluconazole and the pathogen is not inoculated (no-treatment-no-inoculation control) and is bigger than that of the control where determinate soybean is not treated with mefentrifluconazole and the pathogen is inoculated (no-treatment-inoculation control). The same procedure of the example 2 is repeated except for replacing determinate soybean with indeterminate soybean or semi-determinate soybean. It is confirmed that the fresh weight of indeterminate soybean or semi-determinate soybean is smaller than that of the corresponding no-treatment-no-inoculation control and is equivalent to that of the corresponding no-treatment-inoculation control.

[5] = test system: Asian soybean rust (Phakopsora pachyrhizi); test: Dripping mefentrifluconazole onto primary leaf, Asian soybean rust inoculation, fresh weight of aerial part (Example 3 / Comparative Example 3); settings: dripped onto primary leaf 0.2 mg per plant, 200 g per hectare, 14 days from inoculation
Procedure: Determinate soybean is sown to a pot filled with a soil at a sowing rate of 1,000,000 seeds per hectare. The determinate soybean is incubated for 10 days in a greenhouse, and then mefentrifluconazole dilution liquid (prepared by diluting an aqueous suspension concentrate of mefentrifluconazole with water) is dripped onto the primary leaf of determinate soybean so that the amount of mefentrifluconazole to be applied to each plant may be 0.2 mg. That is, the application rate of mefentrifluconazole is 200 g per hectare. On the next day of the application, a pathogen of Asian soybean rust (Phakopsora pachyrhizi) is inoculated to the foliage of determinate soybean. The determinate soybean is incubated in a greenhouse for 14 days from the inoculation, and then fresh weight of the aerial part of the determinate soybean is measured. It is confirmed that the fresh weight is equivalent to that of the control where determinate soybean is not treated with mefentrifluconazole and the pathogen is not inoculated (no-treatment-no-inoculation control) and is bigger than that of the control where determinate soybean is not treated with mefentrifluconazole and the pathogen is inoculated (no-treatment-inoculation control).
The same procedure of the example 3 is repeated except for replacing determinate soybean with indeterminate soybean or semi-determinate soybean. It is confirmed that the fresh weight of indeterminate soybean or semi-determinate soybean is smaller than that of the corresponding no-treatment-no-inoculation control and is equivalent to that of the corresponding no-treatment-inoculation control.

[6] = indeterminate or semi-determinate soybean
[7] = Kurosengoku, indeterminate soybean
[8] = Toyomusume, determinate soybean

With CC(O)(Cn1cncn1)c1ccc(Oc2ccc(Cl)cc2)cc1C(F)(F)F (centres unmarked) [mefentrifluconazole] the “Fresh weight of aerial part compared with no-treatment-inoculation control” value ([1]; determinate soybean) was “bigger”, the “Fresh weight of aerial part compared with no-treatment-no-inoculation control” value ([1]; determinate soybean) was “equivalent” and the “Fresh weight of aerial part compared with no-treatment-inoculation control” value [1, 6] was “equivalent”. The “Fresh weight of aerial part compared with no-treatment-no-inoculation control” value [1, 6] was “smaller”, the “Treatment/control ratio (100 × A/B)” value [2, 7] was 49 and the “Treatment/control ratio (100 × A/B)” value ([2]; Tambaguro, determinate soybean) was 82. The “Treatment/control ratio (100 × A/B)” value [2, 8] was 85, the “Treatment/control ratio (100 × A/B)” value ([2]; Williams 82, indeterminate soybean) was 39 and the “Protection from the damage by the pathogen” value (shortened to “Protection from the damage”) ([2]; determinate versus indeterminate soybeans (Tables 3 and 4), dripped onto apical bud) was “protected much more effectively compared with indeterminate soybeans”. The “Treatment/control ratio (100 × A/B)” value ([3]; Harosoy, indeterminate soybean) was 55, the “Treatment/control ratio (100 × A/B)” value [3, 7] was 68 and the “Treatment/control ratio (100 × A/B)” value ([3]; Tambaguro, determinate soybean) was 104. The “Treatment/control ratio (100 × A/B)” value [3, 8] was 105, the “Protection from the damage” value ([3]; determinate soybean (Table 1)) was “successfully protected” and the “Protection from the damage” value ([3]; indeterminate soybean (Table 2)) was “not successfully protected”. The “Fresh weight of aerial part compared with no-treatment-inoculation control” value ([4]; determinate soybean) was “bigger”, the “Fresh weight of aerial part compared with no-treatment-no-inoculation control” value ([4]; determinate soybean) was “equivalent” and the “Fresh weight of aerial part compared with no-treatment-inoculation control” value [4, 6] was “equivalent”. For the same compound, the “Fresh weight of aerial part compared with no-treatment-no-inoculation control” value [4, 6] was “smaller”, the “Fresh weight of aerial part compared with no-treatment-inoculation control” value ([5]; determinate soybean) was “bigger” and the “Fresh weight of aerial part compared with no-treatment-no-inoculation control” value ([5]; determinate soybean) was “equivalent”. The “Fresh weight of aerial part compared with no-treatment-inoculation control” value [5, 6] was “equivalent” and the “Fresh weight of aerial part compared with no-treatment-no-inoculation control” value [5, 6] was “smaller”.
